Assay results from patent publication US9732067B2, “Compounds and methods for activating the apoptotic arm of the unfolded protein response” (University of Kansas, priority 2012, dated 2017).
Read-outs that look alike come from different tables or passages of the source. Each block holds one compound with its values, some of them ahead of it.

Legend:
[1] = tested on: −/− MEF KO CHOP; experiment: Proliferation / cytotoxicity (ATPLite) in MEF with CHOP KO; assay type: cell-based; details: Mus musculus; Table 5; MEF, ATPLite
Method: (§1) Several of the analogs derived from these changes were evaluated in secondary assays as they met the preliminary probe criteria for UPR-CHOP and UPR-XBP1 activity. Select compounds were assessed in a dose response manner for the ability to suppress proliferation in both the CHOP wild-type and CHOP knockout murine embryonic fibroblasts (−/− MEF KO CHOP)(Table 2).
(§2) It was determined whether ML291 and ML291 congeners would induce cell death (cytotoxicity as measured by ATPLite®, which measures production of ATP from living cells) in cells where these pathways are operant, but not activate them in the absence of the pathways.

[2] = tested on: MEF with wild-type CHOP; experiment: Proliferation / cytotoxicity (ATPLite) in MEF with wild-type CHOP; assay type: cell-based, mouse; details: Mus musculus; Table 5; MEF, ATPLite
Method: as §1, §2

[3] = tested on: PERK-eIF2α-CHOP (apoptotic) arm of the Unfolded Protein Response pathway; experiment: UPR-CHOP primary assay (CHO-CHOP luciferase reporter); assay type: cell-based
Method: The purpose of this assay was to detect activators of the PERK-eIF2α-CHOP (apoptotic) arm of the Unfolded Protein Response pathway.
Cells were passaged twice a week. […] Once the cells had reached confluency, old medium was aspirated and the flasks were washed with 20 mL DPBS per T225 flask. Cells were left in DPBS for about 30 seconds. Subsequently, 6.5 mL 0.05% trypsin solution was added into the flask and the flask was rocked gently so that the solution covered the surface. The cells were allowed to detach by incubating at room temperature for about 4 minutes. The flask was washed with […] fresh growth media and the cell suspension was collected in a 50 mL sterile conical tube. The collected cells were centrifuged at 900 rpm for 5 minutes and re-suspended in 1 mL fresh growth media. An additional 19 mL of growth media was added and the tube was mixed gently. The cell suspension was filtered with a cell strainer and the cells were counted.
As above, cells were grown to confluency, washed, and detached with 5 mL trypsin solution for 4 minutes at room temperature. The flask was washed with 25 mL fresh growth media and the cell suspension was collected in a 50 mL sterile conical tube. The cells were centrifuged at 500 rpm for 10 minutes and re-suspended carefully in 1 mL fresh assay medium. An additional 19 mL of assay media was added the cells were mixed gently. The cell suspension was filtered with a cell strainer and the number of cells was counted. Cell density was adjusted to 1.0×10^5 cells/mL in medium.
On day 1, cell suspensions were prepared and 500 cells in 5 μL of assay media were plated in the wells of columns 1-48 of a 1536-well assay plate. The plates were centrifuged at 500 rpm for 1 minute and subsequently incubated at 37° C., 100% relative humidity, 5% CO2 for 16-18 hours.
[…] […] The plates were centrifuged at 1000 rpm for 1 minute and subsequently incubated at 37° C., 100% relative humidity, 5% CO2 for 6 hours.
Following the 6-hour incubation the plate was incubated for 10 minutes at room temperature and 3 μL of STEADY-GLO was added to each well. The plates were centrifuged at 2000 rpm for 2 minutes and subsequently incubated at room temperature for 10 minutes. Luminescence was measured with a luminometer.
The MLPCN library of approximately 330,000 compounds was tested in the UPR-CHOP primary screen utilizing a luciferase-based reporter expressed in a CHO cell line to identify activators of the CHOP apoptotic pathway. […]

[4] = tested on: IRE1/XBP1 (adaptive) UPR sub-pathway; experiment: UPR XBP1 assay (CHO-XBP1-luciferase reporter cell line); assay type: cell-based
Method: A high-throughput screen of the NIH Molecular Libraries Small Molecule Repository (MLSMR) of >350,000 compounds was carried out using complementary cell-based reporter assays using stably transfected CHO-K1 cells that specifically identify activators of the PERK/eIF2α/CHOP (apoptotic), or the IRE1/XBP1 (adaptive) UPR sub-pathways.
The liquid samples were first confirmed at a single-point concentration of 10 μM in the […]. Of the liquid samples, 674 compounds were confirmed to have at least 32% activity at a 10 μM assay concentration. The confirmed compounds were further tested in dose response in the UPR-CHOP primary assay to obtain EC50 values. In addition, confirmed compounds were also dosed out in the CHO-XBP1-luciferase reporter cell line to identify compounds that were selective for the CHOP apoptotic over the adaptive XBP1 pathway.
The high throughput screening effort and subsequent validation produced two chemotypes, which were further explored by SAR analysis for potency, selectivity, the absence of reactive functionality, synthetic accessibility, physiochemical properties, and hit rate in unrelated PUBCHEM assays. SAR testing of re-constituted powders encompassed dose response testing of compounds in two assays: UPR-CHOP and UPR-XBP1 assays.

[5] = tested on: chickens; details: grain from treated crops; cited from earlier work
[6] = tested on: CHOP (apoptotic) and XBP1 (adaptive) arms of the UPR; details: prior screen, non-selective hits; cited from earlier work
[7] = Table 9, average of four runs, F12 HAMs, 10% hi-FBS, read-out: EC50 UPR CHOP Assay
[8] = Table 9, average of four runs, F12 HAMs, 10% hi-FBS, read-out: EC50 UPR XBP1 Assay
[9] = Cricetulus griseus, read-out: CHOP EC50

Structure (SMILES): O=C(Nc1ccc(S(=O)(=O)N2CCC(F)CC2)cc1)c1ccc([N+](=O)[O-])o1 [Entry 10 (Table 1), N-(4-((4-fluoropiperidin-1-yl)sulfonyl)phenyl)-5-nitrofuran-2-carboxamide]
IC50 [1]: > 20 µM | IC50 [2]: 17.5 ± 2.69 µM

EC50 [4, 8]: > 80 µM
Structure (SMILES): CC1(C)CCN(S(=O)(=O)c2ccc(NC(=O)c3ccc([N+](=O)[O-])o3)cc2)CC1 [Analog 5]
EC50 [3, 7]: 0.77 µM

CHOP potency / activity [3]: low micromolar | EC50 ([4]; read-out: XBP1 EC50): 70 to 80 µM
Structure (SMILES): O=C(Nc1nc2c(F)cc(F)cc2s1)c1ccccn1 [SID 104222735]

Structure (SMILES): O=C(Nc1ccc(S(=O)(=O)N2CCCCC2)cc1)c1ccc([N+](=O)[O-])o1 [Entry 8 (Table 1), N-(4-((piperidin-1-yl)sulfonyl)phenyl)-5-nitrofuran-2-carboxamide]
IC50 [1]: > 20 µM | IC50 [2]: 7.84 ± 1.2 µM

CHOP potency / activity [3]: low micromolar | EC50 ([4]; listed as SID104222717, read-out: XBP1 EC50): > 71 µM | EC50 ([4]; read-out: XBP1 EC50): 70 to 80 µM
Structure (SMILES): O=C(Nc1ccc(S(=O)(=O)N2CCOCC2)cc1)c1ccc([N+](=O)[O-])o1 [Entry 1 (Table 1)]
selectivity (XBP1 over CHOP) [3]: 35 fold | EC50 [3, 9]: 2.02 µM

EC50 [4, 8]: > 80 µM
Structure (SMILES): CC(C)(C)C1CCN(S(=O)(=O)c2ccc(NC(=O)c3ccc([N+](=O)[O-])o3)cc2)CC1 [Analog 4]
EC50 [3, 7]: 0.65 µM

Structure (SMILES): CC1CCN(S(=O)(=O)c2ccc(NC(=O)c3ccc([N+](=O)[O-])o3)cc2)CC1 [Entry 12 (Table 1), N-(4-((4-methylpiperidin-1-yl)sulfonyl)phenyl)-5-nitrofuran-2-carboxamide]
IC50 [1]: 16.3 ± 0.99 µM | IC50 [2]: 4.57 ± 1.24 µM

Structure (SMILES): CN(C)C(=S)SSC(=S)N(C)C [NSC-1771]
toxicity in chickens [5]: cause dyschondoplasia in the offspring of chickens | induction of the UPR arms [6]: potently induce both the CHOP (apoptotic) and XBP1 (adaptive) arms of the UPR

EC50 [4, 8]: > 80 µM
Structure (SMILES): O=C(Nc1ccc(S(=O)(=O)N2CCC(F)CC2)cc1)c1ccc([N+](=O)[O-])o1 [Analog 3]
EC50 [3, 7]: 0.43 µM

Structure (SMILES): O=C(Nc1ccc(S(=O)(=O)N2CCOCC2)cc1)c1ccc([N+](=O)[O-])s1 [Entry 2 (Table 3)]
loss in CHOP potency versus 5-nitro-2-furan parent [3]: 6 fold

Structure (SMILES): CCN(CC)C(=S)SSC(=S)N(CC)CC [disulfiram, bis(diethylthiocarbamoyl)disulfide]
induction of the UPR arms [6]: potently induce both the CHOP (apoptotic) and XBP1 (adaptive) arms of the UPR

EC50 [4, 8]: > 80 µM
Structure (SMILES): CC1CCN(S(=O)(=O)c2ccc(NC(=O)c3ccc([N+](=O)[O-])o3)cc2)CC1 [Analog 1]
EC50 [3, 7]: 0.76 µM

Structure (SMILES): CC1(C)CCN(S(=O)(=O)c2ccc(NC(=O)c3ccc([N+](=O)[O-])o3)cc2)CC1 [Entry 13 (Table 1), N-(4-((4,4-dimethylpiperidin-1-yl)sulfonyl)phenyl)-5-nitrofuran-2-carboxamide]
EC50 [3, 9]: 0.5 µM | IC50 [1]: 9.17 ± 3.34 µM | XBP1 liability [4]: no discernable XBP1 liability | IC50 [2]: 3.02 ± 0.6 µM

Structure (SMILES): CC(C)(C)C1CCN(S(=O)(=O)c2ccc(NC(=O)c3ccc([N+](=O)[O-])o3)cc2)CC1 [Entry 14 (Table 1), N-(4-((4-tert-butylpiperidin-1-yl)sulfonyl)phenyl)-5-nitrofuran-2-carboxamide]
IC50 [1]: 2.05 ± 0.29 µM | IC50 [2]: 1.36 ± 0.54 µM
